# Read-outs that look alike come from different tables or passages of the source.
# What was measured:
# [1] = molecular target: T1, AChE (type VI-S, from electric eel) (Electrophorus electricus, UniProt O42275); experiment: AChE inhibition, adaptation of Ellman's method; assay type: biochemical; conditions: means of three independent experiments ± SD, read-out: TcAChE Inhibition IC50
# T1 construct: purchased type VI-S
# Procedure: The inhibition of AChE by the DNP-BIM hybrids herein studied was assayed by using a variation of Ellman´s test and the IC50 values obtained are included in Table 2. […]. An adaptation of the Ellman´s method, previously described, was used to measure the acetylcholinesterase inhibitory activity. The assay solution contained 374 µL of 4-(2-hydroxyethyl)-1-piperazineethanesulfonic acid (HEPES) buffer (50 mM, pH 8.0), 476 µL of 5,5’-dithiobis-(2-nitrobenzoic acid) (DTNB, 3 mM), a variable volume (10–50 µL) of the stock solution of each compound in methanol (1 mg/mL), 25 µL of AChE (type VI-S, from electric eel) stock solution, and the necessary amount of methanol to obtain 0.925 mL of sample mixture in a 1 mL cuvette. The samples were incubated for 15 min and then 75 µL of acetylthiocholine iodide (AChI) solution (16 mM) was added. The reaction was monitored for 5 min at 405 nm. Assays were run with a blank containing all the components except AChE, which was replaced by HEPES buffer. The rates of the reaction were calculated as well as the enzyme activity. A control reaction was carried out using methanol as a sample solution and it was considered as 100% activity.
# The inhibition curves were obtained by plotting the percentage of enzymatic inhibition versus inhibitor concentration and a calibration curve was got from which the linear regression parameters were obtained.
# Aβ1–42 with Cu(II) = Aβ1–42 with Cu(II) (Homo sapiens, UniProt P05067); experiment: Inhibition of Cu-induced Aβ1–42 aggregation (thioflavin T fluorescence); assay type: biochemical; conditions: copper 40 µM, Aβ1–42 40 μM, 24 h, 37 °C; for inhibition at 40 µM: inhibitor 40 µM
# Sequence of Aβ1–42 with Cu(II) (P05067 672-713): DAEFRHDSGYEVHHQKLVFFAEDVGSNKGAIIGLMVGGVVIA
# Procedure: (§1) The anti-amyloidogenic capacity of the compounds was also evaluated in vitro, in the absence and presence of Cu(II), based on the measurement of the fluorescence emission of Thioflavin T (ThT), a stain known by its Aβ fibril binding capacity. This binding interaction can be analyzed by fluorimetry, since the presence of ThT-fibrils increases the absorbance and the emission of the ThT dye, and it also induces red shifts on the absorbance (from 385 to 446 nm) and emission peaks (from 445 to 485 nm). All the measurements were performed after incubation (24 h, 37 °C) of the self-mediated and Cu^2+-induced Aβ aggregates in the presence/absence of the compounds under evaluation.
# (§2) Herein, due to solubility problems of some compounds in the phosphate buffer (0.215 M, pH 8.0) of the working medium, the assays were carried out in the presence of 40 μM concentration of inhibitor and 20 μM in the case of compound 4, instead of 80 μM as previously reported. […] The activity dependence on ligand structural features may be mainly explained by the different ability for intercalation into the fibrils, as already assumed for other inhibitors. […] The data obtained for compounds 6 and 7 indicate that the presence of R1 = F, -NO2 substituents in the BIM have some small positive effect on the inhibition of Aβ aggregation.
# (§3) The Aβ peptide was treated with 1,1,1,3,3,3-hexafluoropropan-2-ol (HFIP) and dissolved in a CH3CN/Na2CO3 (300 μM)/NaOH (250 μM) (48.3:48.3:4.3, v/v/v) mixture in order to have a stable stock solution, avoiding self-aggregation of Aβ1–42. Then, the prepared 500 μM solution was diluted at 40 μM in phosphate buffer (0.215 M, pH 8.0).
# (§4) The solutions of the tested compounds were prepared in MeOH (1 mg/mL), being further diluted in phosphate buffer to a concentration of 480 μM. For copper-induced aggregation studies, a solution of CuCl2 240 μM was prepared from a stock standard solution (0.015 M). To perform the assays for the Aβ1–42 aggregation inhibition, a reported method, based on the fluorescence emission of thioflavin T (ThT), was followed. Aβ1–42 (40 μM) was incubated at 37 °C, for 24 h with or without Cu(II) (40 μM) in a phosphate buffer in presence or absence of the single ligand (40 μM and 20 μM for compound 4). Then, the samples were added to a 96-well plate with […] of 5 μM ThT in 50 mM glycine-NaOH (pH 8.5) buffer. Blank samples were prepared without the peptide for each concentration. The ThT fluorescence was measured at 446 nm (excitation) and 485 nm (emission). The inhibition percentage of aggregation was calculated by Equation (2), in which IFi and IF0 corresponded to the fluorescence intensities, in the presence and in the absence of the tested compound, subtracted of the fluorescence intensities due to the respective blanks.
# (§5) The reported values were obtained as the mean ± SEM of duplicate of three different experiments.
# Aβ1–42 = Aβ1–42 (Homo sapiens, UniProt P05067); experiment: Inhibition of self-mediated Aβ1–42 aggregation (thioflavin T fluorescence); assay type: biochemical; conditions: Aβ1–42 40 μM, 24 h, 37 °C, read-out: Aβ1–42 Aggregation Inhibition, Self-Induced; for inhibition at 40 µM: inhibitor 40 µM
# Sequence of Aβ1–42 (P05067 672-713): as above
# Procedure: as §1, §2, §3, §4, §5
# [2] = cited from earlier work
# [3] = Cu(II) chelation by potentiometry; assay type: physicochemical; conditions: for pH at which metal complexation starts, Cu(II): formation of MHL species, CL = 6.7 × 10^−4 M, 1:2 M(II)/L; for pCu (pM = −log[M]): pH 7.4, CL/CM = 10, CM = 10^−6 M; for Kd: pH 7.4, read-out: conditional dissociation constant (K´d) for the copper complex
# From the text: (§6) The metal chelating ability of hybrids 7 and 12, due to the BIM bidentate unity with (N,O) coordination mode, was studied by potentiometry. Figure 3A,B show a change in the deprotonation profile of the ligand titration curves due to the presence of the metal ions. In fact, the curves for the Cu(II)/L systems lie well below that of the ligand, while for the Zn(II)/L systems stay under for a > −1 (compound 7) or a > 0 (compound 12), thus supporting the formation of 1:1 and 1:2 M/L ratio complexes with the deprotonated and mono-protonated forms of the ligand and with relative metal dependent stability order (Cu > Zn). Table 1 contains the equilibrium models obtained from the fitting analysis of the potentiometric curves by program Hyperquad. In these equilibrium models, which the coordination core of the compounds integrates the bidentate (N,O) BIM moiety, MHL and MH2L2 correspond to species with the ligand containing one protonated nitrogen atom at the piperazine moiety, ML and ML2 correspond to complexes involving the completely deprotonated form of the ligand while MH-1L2 are mixed ligand-hydroxo metal complexes.
# (§7) Solutions: the aqueous copper (CuCl2, 0.015 M) and zinc (ZnCl2, 0.0156 M) stock solutions for potentiometric equilibrium studies were prepared from 1000 ppm standards (Titrisol) and their metal content was evaluated by atomic absorption. The titrant solution (0.1 M KOH) was obtained from a carbonate-free commercial concentrate (Titrisol) and standardized by potentiometric titration with potassium hydrogen phthalate. The titrant solution was discarded whenever the percentage of carbonate (Gran’s method) was about 0.5% of the total amount of base.
# (§8) Measurements: compounds 7 and 12 were titrated in 50% (w/w) DMSO/H2O medium, at T = 25.0 ± 0.1 °C and ionic strength (I) 0.1 M KCl, using 0.1 M KOH as titrant. Both glass and Ag/AgCl reference electrodes were previously conditioned in DMSO/H2O mixtures with increasing amounts of DMSO and the response of the glass electrode was controlled by strong acid–strong base (HCl/KOH) calibrations with the determination of the Nernst parameters by Gran’s method. […] All titrations were performed in duplicate and under the stated experimental conditions the pKw value (13.6) was determined and subsequently used in the computations. The stepwise protonation constant of the ligand, Ki = [HiL]/([Hi–1L][H]), and the overall metal–complex stability constants, βMmHhLl = [MmHhLl]/([M]^m[H]^h[L]^l), were calculated by fitting the potentiometric titration data with Hyperquad 2008 [26]. The metal hydrolysis constants were determined under the defined experimental conditions (I = 0.1 M KCl, 50% w/w DMSO/H2O, T = 25.0 ± 0.1 °C) and the following values of stability constants were included in the fitting of experimental data towards the equilibrium models related to the Cu^2+/L and Zn^2+/L systems: log βCu2H−2 = −9.99; log βZnH−2 = −14.79, log βZnH−3 = −23.48. Species distribution curves were plotted with the Hyss program.
# [4] = Zn(II) chelation by potentiometry; assay type: physicochemical; conditions: for pH at which metal complexation starts, Zn(II): formation of MHL species, CL = 6.7 × 10^−4 M, 1:2 M(II)/L; for pZn (pM = −log[M]): pH 7.4, CL/CM = 10, CM = 10^−6 M
# From the text: as §6, §7, §8
# [5] = global formation constant, 50% w/w DMSO/water, I = 0.1 M KCl, 25.0 °C
# T1 sequence (O42275 24-633): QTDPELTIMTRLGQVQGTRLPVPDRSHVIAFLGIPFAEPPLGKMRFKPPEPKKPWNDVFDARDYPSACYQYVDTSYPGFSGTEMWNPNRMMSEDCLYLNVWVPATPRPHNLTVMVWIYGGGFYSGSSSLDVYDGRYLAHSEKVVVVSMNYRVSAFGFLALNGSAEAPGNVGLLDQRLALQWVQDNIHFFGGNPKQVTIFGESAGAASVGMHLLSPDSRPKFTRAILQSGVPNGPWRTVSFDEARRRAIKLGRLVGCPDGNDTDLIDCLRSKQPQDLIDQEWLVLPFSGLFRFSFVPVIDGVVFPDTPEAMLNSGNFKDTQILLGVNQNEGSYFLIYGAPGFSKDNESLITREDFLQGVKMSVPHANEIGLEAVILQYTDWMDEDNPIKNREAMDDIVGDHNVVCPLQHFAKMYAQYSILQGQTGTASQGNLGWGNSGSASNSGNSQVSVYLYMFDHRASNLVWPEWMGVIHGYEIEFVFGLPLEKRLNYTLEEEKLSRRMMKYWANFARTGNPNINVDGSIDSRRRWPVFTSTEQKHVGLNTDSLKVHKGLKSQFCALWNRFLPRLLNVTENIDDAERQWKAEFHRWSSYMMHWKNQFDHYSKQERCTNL
smiles,measurement,setting,value
"O=C(NCCN1CCN(Cc2ccccc2)CC1)c1ccc2[nH]c(-c3cc(F)ccc3O)nc2c1 [Compound 8, N-(2-(4-Benzylpiperazin-1-yl)ethyl)-2-(2-hydroxy-5-fluorophenyl)-1H-benzo[d]imidazole-5-carboxamide]",IC50,[1],4.3 ± 0.3 µM
same,inhibition at 40 µM,Aβ1–42 with Cu(II),55.2%
same,inhibition at 40 µM,Aβ1–42,50.6%
"O=C(NCC1CCN(Cc2ccccc2)CC1)c1ccc2[nH]c(-c3cc(F)ccc3O)nc2c1 [Compound 6, N-((1-Benzylpiperidin-4-yl)methyl)-2-(2-hydroxy-5-fluorophenyl)-1H-benzo[d]imidazole-5-carboxamide]",IC50,[1],1.67 ± 0.05 µM
same,inhibition at 40 µM,Aβ1–42 with Cu(II),61%
same,inhibition at 40 µM,Aβ1–42,51.2%
Oc1ccccc1 [phenol],log K (protonation constant),[2]; standard group,9.98
"O=C(NCCN1CCN(Cc2ccccn2)CC1)c1ccc2nc(-c3ccccc3O)[nH]c2c1 [Compound 12, 2-(2-Hydroxyphenyl)-N-(2-(4-(pyridin-2-ylmethyl)piperazin-1-yl)ethyl)-1H-benzo[d]imidazole-6-carboxamide]","pH at which metal complexation starts, Cu(II)",[3],around 2
same,"log βCumHhLl (1–12), CuH-1L2",[3]; [5],7.88(7)
same,"log βCumHhLl (101), CuL",[3]; [5],11.18(5)
same,"log βCumHhLl (102), CuL2",[3]; [5],17.14(7)
same,"log βCumHhLl (111), CuHL",[3]; [5],16.26(3)
same,pCu (pM = −log[M]),[3],10.4
same,Kd,[3],0.000365 µM
same,"pH at which metal complexation starts, Zn(II)",[4],3.5–4
same,"log βZnmHhLl (1–12), ZnH-1L2",[4]; [5],2.07(7)
same,"log βZnmHhLl (101), ZnL",[4]; [5],6.26(5)
same,"log βZnmHhLl (102), ZnL2",[4]; [5],10.54(5)
same,"log βZnmHhLl (111), ZnHL",[4]; [5],12.58(4)
same,pZn (pM = −log[M]),[4],6.3
same,IC50,[1],> 100 µM
same,inhibition at 40 µM,Aβ1–42 with Cu(II),44.4%
same,inhibition at 40 µM,Aβ1–42,30.1%
O=[N+]([O-])c1ccc(O)cc1 [4-nitrophenol],log K (protonation constant),[2]; standard group,7.15
"O=C(NCC1CCCN(Cc2ccccc2)C1)c1ccc2nc(-c3ccccc3O)[nH]c2c1 (stereo not drawn) [Compound 3, N-((1-Benzylpiperidin-3-yl)methyl)-2-(2-hydroxyphenyl)-1H-benzo[d]imidazole-6-carboxamide]",IC50,[1],5 ± 0.5 µM
same,inhibition at 40 µM,Aβ1–42 with Cu(II),81.8%
same,inhibition at 40 µM,Aβ1–42,71.4%
"O=C(NCCN1CCN(Cc2ccccc2)CC1)c1ccc2[nH]c(-c3cc([N+](=O)[O-])ccc3O)nc2c1 [Compound 7, N-(2-(4-Benzylpiperazin-1-yl)ethyl)-2-(2-hydroxy-5-nitrophenyl)-1H-benzo[d]imidazole-5-carboxamide]","pH at which metal complexation starts, Cu(II)",[3],around 2
same,"log βCumHhLl (1–12), CuH-1L2",[3]; [5],7.30(9)
same,"log βCumHhLl (102), CuL2",[3]; [5],15.27(8)
same,"log βCumHhLl (111), CuHL",[3]; [5],14.23(5)
same,"log βCumHhLl (122), CuH2L2",[3]; [5],26.90(7)
same,pCu (pM = −log[M]),[3],10.9
same,Kd,[3],0.08 µM
same,"pH at which metal complexation starts, Zn(II)",[4],3.5–4
same,"log βZnmHhLl (101), ZnL",[4]; [5],4.98(8)
same,"log βZnmHhLl (102), ZnL2",[4]; [5],10.22(8)
same,"log βZnmHhLl (111), ZnHL",[4]; [5],10.40(8)
same,"log βZnmHhLl (122), ZnH2L2",[4]; [5],21.92(7)
same,pZn (pM = −log[M]),[4],6.5
same,IC50,[1],21 ± 3 µM
same,inhibition at 40 µM,Aβ1–42 with Cu(II),71.4%
same,inhibition at 40 µM,Aβ1–42,57.6%
c1c[nH]cn1 [imidazole],log K (protonation constant),[2]; standard group,6.95
"O=C(NCCN1CCN(Cc2ccccc2[N+](=O)[O-])CC1)c1ccc2nc(-c3ccccc3O)[nH]c2c1 [Compound 11, 2-(2-Hydroxyphenyl)-N-(2-(4-(2-nitrobenzyl)piperazin-1-yl)ethyl)-1H-benzo[d]imidazole-6-carboxamide]",IC50,[1],20 ± 1 µM
same,inhibition at 40 µM,Aβ1–42 with Cu(II),43.5%
same,inhibition at 40 µM,Aβ1–42,22.7%
"O=C(NCC1CCCCN1Cc1ccccc1)c1ccc2nc(-c3ccccc3O)[nH]c2c1 (stereo not drawn) [Compound 4, N-((1-Benzylpiperidin-2-yl)methyl)-2-(2-hydroxyphenyl)-1H-benzo[d]imidazole-6-carboxamide]",IC50,[1],14 ± 1 µM
same,inhibition at 20 µM,Aβ1–42 with Cu(II); inhibitor 20 µM,55.9%
same,inhibition at 20 µM,Aβ1–42; inhibitor 20 µM,47.6%
c1ccncc1 [pyridine],log K (protonation constant),[2]; in water,5.24
